Experimental data published in patent publication US8722714B2, “Oxazolidine derivatives as NMDA antagonists” (The Honk Kong University of Science and Technology, priority 2008, dated 2014).

Tests used:
[1] = test system: rat primary cortical neurons; experiment: Immunocytochemical analysis of neurons after NMDA insult; format: cell-based; conditions: compound 10 μg/ml; beta-tubulin type III and DAPI stain
Description: Primary cortical and hippocampal neurons were prepared from embryonic day 18 (E18) Sprague-Dawley rats. Neurons were plated on 35-mm dishes (NUNC) at a density of 1×10^6 cells per plate using Neurobasal medium (Invitrogen) supplemented with 2% B27 (Invitrogen). Neurons at 11-12 days in vitro (DIV) were subjected to treatment with the test compounds. Neurons were pretreated with the test compound for 2 hours prior to NMDA treatment. 0.1 μM (+)-MK-801 Hydrogen Maleate (Sigma) was added as a positive control. Briefly, the neurons were rinsed with Locke's solution (5 mM potassium chloride, 128 mM sodium chloride, 2.7 mM calcium chloride, 1 mM di-sodium hydrogen orthophosphate, 5 mM HEPES and 10 mM glucose in Milli-Q water) without Mg^2+, and incubated with addition of glycine (10 μM) for 15 minutes. After the incubation, the neurons were co-treated with the test compound (dissolved in Locke's plus glycine solution) and NMDA (20 μM; Sigma) for 20 minutes. Neurons were rinsed with Locke's plus Mg^2+ and replaced with fresh growth medium. […] Neurons were then analyzed by a fluorescence microscope using a 40× objective (DMRA; Leica). […]
LC-02 (10 μg/mL) protects embryonic rat primary cortical neurons against NMDA excitotoxicity. Neurites were immunostained with beta-tubulin type III antibody and detected with FITC-conjugated antibody. […]

mice [2] = experiment: Open Field Test (OFT); format: in vivo; conditions: 100 mg/kg p.o., 7 times, vs control group
opioid kappa receptor = opioid kappa receptor (Rattus norvegicus, UniProt P34975); experiment: Ligand binding assay (High-throughput Profile, CEREP)
Description: To determine the pharmacological profile and potential targets of LC-02, 80 binding assays were performed (High-throughput Profile, CEREP, France). LC-02 was evaluated at a single concentration in these specific binding assays. […] A cutoff of 25% is considered as a moderate effect.
Compound LC-02 (10 μM) was subjected to ligand binding assays with human A3 and rat kappa receptor overexpressing cells. Results are expressed as a percent of control specific agonist response [100-(measured specific response/control specific agonist response)×100] obtained in the presence of LC-02.

mice [3] = experiment: Forced Swim Test (FST); format: in vivo; conditions: 100 mg/kg p.o., 7 times, last 4 min of 6-min swim
Excerpt: Outbred male I.C.R. mice of ˜3-4 weeks old weighing 20-22 g were used. The mice had free access to food (rodent chow #2053, 5g/mouse/day) and water. The cage floors were covered with wood shavings and the mice were handled once per week while the cages were cleaned. […] Number of mice per group was ˜10-15. To facilitate adaptation to novel surroundings, mice were transported to the testing area from the core animal facility at least one week prior to testing. All experimental sessions were conducted between 0900 and 1200 hours. Briefly, mice were put into a pyrex cylinder of 30 cm in height and 11.5 cm in diameter with water (10 cm) to a level that they would not be able to touch the bottom. Mice were put into the cylinder for twice, first day 15 min and second day 6 min. The duration of immobility (within the last 4 min in the 6-min time frame) of mice in FST were recorded using Etho-Vision® XT Mobility (Noldus software). The parameters to score the behavior of animals in the FST were fine-tuned by visual inspection. […]
The Forced Swim Test (FST) is a popular animal model for assessing depression. […] The time that the test animal spends in an immobile state in the second trial is measured (immobility time). […]
The task was then performed twice and the duration of time the mice spent in an immobile state during the second trial was measured. […]

Sequence of opioid kappa receptor (P34975 whole entry): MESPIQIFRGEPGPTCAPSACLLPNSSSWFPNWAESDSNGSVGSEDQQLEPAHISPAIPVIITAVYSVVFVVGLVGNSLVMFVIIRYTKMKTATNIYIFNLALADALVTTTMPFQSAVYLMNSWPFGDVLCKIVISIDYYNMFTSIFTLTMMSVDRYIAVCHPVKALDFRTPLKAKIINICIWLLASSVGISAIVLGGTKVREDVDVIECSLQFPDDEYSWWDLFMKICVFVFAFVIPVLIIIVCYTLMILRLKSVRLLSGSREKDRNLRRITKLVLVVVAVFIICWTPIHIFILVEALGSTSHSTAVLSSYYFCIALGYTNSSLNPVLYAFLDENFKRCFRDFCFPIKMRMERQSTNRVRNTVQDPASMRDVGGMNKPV

SMILES | protection against NMDA excitotoxicity and apoptosis (immunostaining) [1] | total distance travelled in the open field (mice [2]) | % of inhibition of ligand binding (opioid kappa receptor; 10 μM, [3H]U 69593, rat kappa receptor overexpressing cells) [%] | inhibition at 10 µM (opioid kappa receptor; [3H]U 69593, rat kappa receptor overexpressing cells) [%] | duration of immobility (immobility time) (mice [3])
CC[C@H]1N[C@@H](CC(C)C)C(CC)(CC)O1 [LC-02] | protected the cells from excitotoxicity and the resulting apoptosis at a level similar to control cells | did not significantly differ | 26 | 30 | 
CCCC1(CCC)O[C@@H](CC)N[C@H]1CC(C)C [LC-06] |  |  |  |  | Reduces the Duration of Immobility
